Several values for one entry are separate records, joined by “and”; a condition that tells them apart may be missing. Equal values may be shown once.
What was measured:
[1] = test system: mouse peritoneal macrophages; assay: YoPro Yellow uptake by peritoneal macrophages; type: cell-based; settings: 5 mM ATP
Protocol: Peritoneal macrophages were washed with Isotonic Medium (15 mM Hepes, pH 7.2, 135 mM NaCl, 5 mM KCl, […], […]) by centrifugation and the resulting cell pellet was suspended in Isotonic Medium to achieve a final cell concentration of 1×10^6 cells/ml. Fifty μl of this cell suspension then was placed into wells of a Microfluor “B” U-bottom plate (Dynatech, Chantilly, Va.), and 50 μl of 2 μM YoPro Yellow (Molecular Probes, Eugene, Ore.); the fluorescent dye was dissolved in Isotonic Medium. Wells were then adjusted to 5 mM ATP or 0.0075% saponin by addition of concentrated stock solutions of these agents. Fluorescence was monitored as a function of time at 37° C., excitation, 450 nm/emission, 530 nm.

[2] = test system: LPS-activated peritoneal macrophages; assay: Stimulus-induced IL-1β posttranslational processing in vitro; type: cell-based, mouse; settings: 35S-methionine-labeled, 30 min, 5 mM ATP or 20 μM nigericin
Protocol: (§1) Macrophages from wild type and P2×7^−/− animals (1×10^6 cells seeded per well of 6-well cluster plates) were stimulated with 1 μg/ml E. coli LPS (Serotype 055 B5 obtained from Sigma; St. Louis, Mo.) for 75-90 minutes and then rinsed with 2 ml of methionine-free RPMI medium containing 100 units/mi penicillin, 100 μg/ml streptomycin, 1% dialyzed FBS, 1 μg/ml LPS, and 25 mM Hepes, pH 7.3 (Pulse Medium). One ml of Pulse Medium containing 83 μCi/Ml of ^35S-methionine (Amersham Corp, Chicago, Ill.) then was added to each well, and the cells were labeled at 37° C. for 1 hour. These labeled cells subsequently were rinsed twice with RPMI 1640 medium containing 100 units/mil penicillin, 100 μg/ml streptomycin, 1% FBS, 2 mM glutamine, 1 μg/ml LPS and 25 mM Hepes, pH 7.3 (Chase Medium). One ml of Chase Medium (containing no effector (control) or containing 05 mM ATP, or 20 mM nigericin) was then added to each well, and the cells were chased at 37° C. for 30 minutes. Media were harvested and clarified by centrifugation (6000×g for 5 minutes) to remove cells and/or cell debris. Cell monolayers were suspended in 1 ml of a lysis buffer composed of 1% Triton X-100, 150 mM NaCl, 25 mM Hepes, pH 7, 0.1 mM PMSF, 1 mg/ml ovalbumin, 1 mM iodoacetic acid, 1 μg/ml pepstatin, and 1 μg/ml leupeptin. Clarified media samples were adjusted to the same final Triton X-100 and protease inhibitor concentrations by addition of aliquots from concentrated stocks of these reagents. After a 30 minute incubation on ice, all samples were clarified by centrifugation at 45,000 rpm for 30 minutes in a TLA-45 rotor (Beckman, Palo Alto, Calif.), the resulting supernatants were recovered, and IL-1β was immunoprecipitated from these samples using a goat anti-murine IL-1β serum obtained from Dr. Ivan Otterness (Pfizer Central Research, Groton, Conn.). Immnunoprecipitates were fractionated by SDS gel electrophoresis, the quantity of radioactivity associated with individual IL-1β polypeptide species was determined by scanning dried gels with a Phosphoimager.

[3] = test system: LPS-activated peritoneal macrophages; assay: LDH release from LPS-activated macrophage cultures; type: cell-based, mouse; settings: 30 min
Protocol: FIG. 6B is a graphic representation showing the percentage of lactate dehydrogenase (LDH) released from the total culture associated LDH in the samples described in FIG. 6A;
as §1, with “After a 30 minute incubation on ice, all samples were clarified by centrifugation at 45,000 rpm for 30 minutes in a TLA-45 rotor (Beckman, Palo Alto, Calif.), the resulting supernatants were recovered, and IL-1β was immunoprecipitated from these samples using a goat anti-murine IL-1β serum obtained from Dr. Ivan Otterness (Pfizer Central Research, Groton, Conn.).” left out

IL-1β = assay: ATP-induced IL-1β posttranslational processing in vivo (peritoneal lavage ELISA); set-up: species or system mouse
Protocol: (§2) ATP-Induced IL-1β Posttranslational Processing In Vivo Groups of mice were injected intraperitoneally (ip) with 1 μg of LPS. Two hours after this LPS injection, mice were injected ip with either 30 mM ATP (adjusted to pH 7) or PBS. Mice were sacrificed 30 minutes or 120 minutes after the ATP or PBS injection and peritoneal cavities were lavaged, each with 3 ml of RPMI (5% FCS). Samples of peritoneal lavages were spun down, supernatants were collected and tested for the presence of IL-1β and IL-6 using ELISAs (Amersham Life Sciences, Arlington Heights, Va. and Endogen, Woburn, Mass., respectively).

IL-6 = assay: ATP-induced IL-6 release in LPS-primed mice (peritoneal lavage ELISA); type: in vivo, mouse; settings: for IL-6 (ng/ml), ATP Challenge, P2×7R-/-: LPS-primed P2×7R-/- mice; for IL-6 (ng/ml), ATP Challenge, P2×7R-/- / IL-6 (ng/ml), ATP Challenge, WT: ip ATP, peritoneal lavage; for IL-6 (ng/ml), ATP Challenge, WT: LPS-primed wild-type mice
Protocol: as §2
As noted earlier, IL-1 signaling often leads to the production of other cytokines such as IL-6 (Allen et al. (2000) J. Exp. Med. 191:859-869). […] Two hours later an injection of ATP (or PBS) was administered to promote IL-1 posttranslational processing and the mice were incubated for an additional 4 hours. Peritoneal lavages were collected at several times during the course of the experiment and analyzed for IL-6 by ELISA. […] Mice that received an initial priming injection of LPS followed by PBS yielded levels of IL-6 at 1 and 2 hours (4 to 5 ng/ml) that were elevated above those recovered from mice injected with the combination of phosphate buffered saline and ATP (FIG. 8). By 4 hours, however, IL-6 levels recovered from the LPS-PBS treated animals returned to baseline (FIG. 9).

P2×7R = settings: cited from earlier work
other P2× receptors = settings: cited from earlier work

Compound | YoPro Yellow fluorescence intensity ([1]; P2×7R-/- macrophages) | YoPro Yellow fluorescence intensity ([1]; wild-type macrophages) | extracellular 17 kDa IL-1β as percentage of total radiolabeled IL-1β recovered ([2]; P2×7R-/- macrophages) | extracellular 17 kDa IL-1β as percentage of total radiolabeled IL-1β recovered ([2]; wild-type macrophages) [%] | release of lactate dehydrogenase (LDH) ([3]; wild-type macrophages) | IL-1β in peritoneal lavage after ATP challenge (IL-1β; LPS-primed mice heterozygous (+/-) for the P2×7R disruption, 30 min) | IL-1 (ng/ml), ATP Challenge, WT (IL-1β; LPS-primed wild-type mice, ip ATP, 120 min post challenge, peritoneal lavage) | IL-6 (ng/ml), ATP Challenge, P2×7R-/- (IL-6; 30 min post challenge) [ng/mL] | IL-6 (ng/ml), ATP Challenge, P2×7R-/- (IL-6; 120 min post challenge) [ng/mL] | IL-6 (ng/ml), ATP Challenge, WT (IL-6; 30 min post challenge) [ng/mL] | IL-6 (ng/ml), ATP Challenge, WT (IL-6; 120 min post challenge) | peak lavage fluid IL-6 (IL-6; wild-type mice, LPS at time 0, ATP at 2 hours, 4 hour time point) [ng/mL] | lavage fluid IL-6 (IL-6; wild-type mice, priming injection of PBS followed 2 hours later by ATP) | levels of ATP required to achieve activation (P2×7R) [mM] | ATP concentrations at which receptors activate (other P2× receptors) [µM] | release of lactate dehydrogenase (LDH) ([3]; P2×7R-/- macrophages)
Nc1ncnc2c1ncn2[C@@H]1O[C@H](COP(=O)(O)OP(=O)(O)OP(=O)(O)O)[C@@H](O)[C@H]1O [ATP] | did not result in time-dependent increase in fluorescence intensity | time dependent increase in fluorescence intensity | did not release any radiolabeled IL-1β | 64 | enhanced release | A similar pattern | 0.34 ng/mL and 0.33 ± 0.08 ng/mL | 9 ± 1 | 6 | 8.2 ± 1.7 | 17 ng/mL and 16.8 ± 2.3 ng/mL | > 25 | did not contain significant levels of IL-6 at any time | > 1 | ≤ 100 | 
CO[C@@H]1C[C@@H](C[C@H]2CC[C@H](C)[C@H]([C@@H](C)C(=O)O)O2)O[C@]2(O[C@](C)([C@H]3CC[C@@](C)([C@@H]4O[C@@H]([C@H]5O[C@@](O)(CO)[C@H](C)C[C@@H]5C)C[C@@H]4C)O3)C[C@H]2C)[C@@H]1C [nigericin] |  |  | 74% | 66 | comparable quantities of LDH |  |  |  |  |  |  |  |  |  |  | comparable quantities of LDH

Reference: patent publication US6677501B2, “P2X7 receptor-deficient mice and uses thereof” (Pfizer, Inc., priority 2000, dated 2004)
